Assay results as given in patent US20260317319A1, “NOVEL ERGOLINES AND METHODS OF TREATING MOOD DISORDERS” (Gilgamesh Pharma Inc., priority 2023, published 2026).
Read-outs that look alike come from different tables or passages of the source.

Key:
5-HT2A receptor [1] = target: T1, 5-HT2A receptor (Homo sapiens, UniProt P28223); assay: cell-based; assay type: cell-based; conditions: for 5-HT2A Arrestin % Act @ Max Dose / Emax: max dose; for Emax: read-out: 5-HT2A Arrestin % Act @ Max Dose
In short: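 PathHunter β-arrestin recruitment (enzyme fragment complementation): 5-HT2A fused to ProLink donor in cells co-expressing β-arrestin–β-galactosidase acceptor, seeded and held at 37° C before testing. Chemiluminescent read-out; agonist % activity = (sample RLU − vehicle)/(max control ligand − vehicle) × 100.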

5-HT1A receptor = target: T2, 5-HT1A receptor (Homo sapiens, UniProt P08908); assay: cell-based; conditions: agonist, Ca2+ flux; for Emax: CHO, read-out: 5-HT1A % Act @ Max Dose
T2 construct: expressed in transfected cells; host or cells: CHO cells, stably transfected
T2 sequence (P08908 1-422): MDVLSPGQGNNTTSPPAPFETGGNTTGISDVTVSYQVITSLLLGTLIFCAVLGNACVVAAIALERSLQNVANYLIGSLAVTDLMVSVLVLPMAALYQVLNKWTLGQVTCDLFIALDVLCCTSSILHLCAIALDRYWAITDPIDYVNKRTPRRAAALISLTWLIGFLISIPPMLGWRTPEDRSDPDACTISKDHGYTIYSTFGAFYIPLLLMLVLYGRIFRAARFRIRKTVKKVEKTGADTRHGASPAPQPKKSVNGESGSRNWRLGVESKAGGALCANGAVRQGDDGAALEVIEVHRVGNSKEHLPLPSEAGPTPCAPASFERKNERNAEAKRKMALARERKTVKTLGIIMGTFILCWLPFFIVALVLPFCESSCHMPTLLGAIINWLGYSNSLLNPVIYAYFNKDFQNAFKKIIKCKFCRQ
In short: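 Receptor agonism was assessed as intracellular calcium mobilization in stably transfected cells, with CHO cells additionally carrying Gα15 for the 5-HT1A readout. Calcium was monitored with Fluo-4 Direct dye.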

C57BL/6 mice = assay: Automated mouse head twitch response (HTR) assay (video tracking); assay type: in vivo; conditions: sc; for # HTR/20 min at Most Efficacious Dose: 20 min recording, at each compound's most efficacious dose (35*, 43*, 44*: suppressed below vehicle 14.5, dose is that of least suppression); for # HTR/20 min at Most Efficacious Dose / Peak HTR/min at Most Efficacious Dose: mean; for Most Efficacious Dose for Peak HTR/min: dose giving highest peak HTR/min (35*, 43*, 44*: dose that resulted in the least suppression); for Most Efficacious Dose for # HTR/20 min: dose giving most HTR/20 min (35*, 43*, 44*: dose that resulted in the least suppression); for Peak HTR/min at Most Efficacious Dose: rate over 2-min bins, at each compound's most efficacious dose (35*, 43*, 44*: suppressed below vehicle 1.62, dose is that of least suppression)
Experimental: Disclosed compounds were tested for their ability to induce a head twitch response (HTR) in mice using an automated video tracking procedure, with the results summarized in Table 8 and FIG. 4.
Animals. Adult male C57BL/6 mice aged 8-10 weeks (Jackson Labs, Bar Harbor, ME; body weight 18-25 g) were used in this experiment. Animals were group housed under environmentally controlled temperatures and 12-hour light/dark cycles (lights on between 06:00-18:00 h), with ad libitum food and water. Mice were habituated to the facility for at least 5 days prior to testing. All animal procedures were approved by the local IACUC and conducted in accordance with the NIH Guide for the Care and Use of Laboratory Animals.
Procedure. Mice were administered one dose of the drug and immediately placed into a small open field for behavioral observation. High-speed video of animals' behavior was captured continuously for 20 min. Video recordings were imported into an image processing software, which detects multiple points of interest on each animal's body, including the left and right ear. HTR events were defined as periodic deviations of ear locations from temporally averaged ear locations. Predefined thresholds for magnitude and frequency of location deviations were used to filter HTR events from random head movements. The method was validated by comparing detected events with manual (human) observations and found to have an accuracy >95%. The total number of HTR events counted during the 20-min recording and the rate in HTR/min calculated over 2-min bins were determined for each animal at each dose.
Statistical Analysis. The data points shown are the mean±standard error of the mean (SEM).

in vitro [2] = assay type: in vitro ADME, human; conditions: HLM 0.50 mg/mL, NADPH 1 mM, 1 μM compound, pH 7.4, 37° C., 60 min
5-HT2C receptor = target: T3, 5-HT2C receptor (Homo sapiens, UniProt P28335); assay: cell-based; conditions: for Emax: read-out: 5-HT2C % Act @ Max Dose
T3 sequence (P28335 33-458): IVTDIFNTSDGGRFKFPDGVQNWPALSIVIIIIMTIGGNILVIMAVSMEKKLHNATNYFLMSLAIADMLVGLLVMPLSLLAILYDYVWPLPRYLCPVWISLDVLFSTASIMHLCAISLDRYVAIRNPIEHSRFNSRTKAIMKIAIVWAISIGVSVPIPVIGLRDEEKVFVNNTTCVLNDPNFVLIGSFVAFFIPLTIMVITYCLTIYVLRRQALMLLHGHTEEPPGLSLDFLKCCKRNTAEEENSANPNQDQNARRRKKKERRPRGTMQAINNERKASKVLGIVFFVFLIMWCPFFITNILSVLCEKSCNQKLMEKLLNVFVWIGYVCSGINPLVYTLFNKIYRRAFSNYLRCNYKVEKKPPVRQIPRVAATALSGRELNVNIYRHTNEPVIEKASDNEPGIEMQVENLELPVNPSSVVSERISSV

5-HT2B receptor [3] = target: T4, 5-HT2B receptor (Homo sapiens, UniProt P41595); assay: 5-HT2B receptor radioligand binding ([3H]LSD)
T4 construct: expressed in transfected cells; host or cells: HEK293, stably transfected
T4 sequence (P41595 whole entry): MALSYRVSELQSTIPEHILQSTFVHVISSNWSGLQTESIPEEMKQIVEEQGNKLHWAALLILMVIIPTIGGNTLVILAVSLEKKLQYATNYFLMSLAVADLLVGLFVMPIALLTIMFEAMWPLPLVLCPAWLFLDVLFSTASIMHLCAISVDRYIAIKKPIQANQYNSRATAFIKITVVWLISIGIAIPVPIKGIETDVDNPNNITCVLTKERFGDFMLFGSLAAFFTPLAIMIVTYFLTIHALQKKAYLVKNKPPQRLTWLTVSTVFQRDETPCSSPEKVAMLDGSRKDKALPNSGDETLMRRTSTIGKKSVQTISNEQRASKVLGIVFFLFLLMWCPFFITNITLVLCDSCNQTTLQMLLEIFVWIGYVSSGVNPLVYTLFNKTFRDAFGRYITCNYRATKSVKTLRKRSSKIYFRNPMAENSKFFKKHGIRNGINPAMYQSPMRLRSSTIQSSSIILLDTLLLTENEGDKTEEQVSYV

5-HT2B receptor [4] = target: T4, 5-HT2B receptor; assay: cell-based; assay type: cell-based; conditions: Ca2+ flux; for 5-HT2B % Act @ Max Dose / Emax: HEK293, max dose; for Emax: HEK293, agonist, read-out: 5-HT2B % Act @ Max Dose
In short: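 FLIPR Tetra fluorescence read-out of calcium flux after compound addition. Receptor-expressing stable lines were used (HEK293 for 2A/2B; CHO with Gα15 for 1A), dye-loaded with Fluo-4 Direct and 2.5 mM final probenecid, 50 min at 37 °C.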

5-HT2A receptor [5] = target: T1, 5-HT2A receptor; assay: cell-based; assay type: cell-based; parameters: expressed in transfected cells; host or cells: HEK293, stably transfected; conditions: for Emax: HEK293, agonist, read-out: 5-HT2A % Act @ Max Dose
In short: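 Cells plated and incubated overnight at 37 °C, 5% CO2; Fluo-4 Direct dye with probenecid (final 2.5 mM) added, 50 min at 37 °C; test compounds transferred and Ca2+ signal recorded. HEK293 hosts for 5-HT2A/2B, CHO + Gα15 for 5-HT1A.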

5-HT2A receptor [6] = target: T1, 5-HT2A receptor; assay: biochemical; assay type: binding; parameters: expressed in transfected cells; host or cells: HEK293, stably transfected
In short: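 Affinity was measured in radioligand binding experiments using [^3H]ketanserin as the labelled ligand, following methods adapted from published procedures.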

5-HT1B receptor = target: T5, 5-HT1B receptor (Homo sapiens, UniProt P28222); assay: cAMP accumulation functional assay at 5-HT1B; assay type: cell-based; conditions: agonist, cAMP accumulation; for Emax: read-out: 5-HT1B % Act @ Max Dose
T5 construct: expressed in transfected cells
T5 sequence (P28222 whole entry): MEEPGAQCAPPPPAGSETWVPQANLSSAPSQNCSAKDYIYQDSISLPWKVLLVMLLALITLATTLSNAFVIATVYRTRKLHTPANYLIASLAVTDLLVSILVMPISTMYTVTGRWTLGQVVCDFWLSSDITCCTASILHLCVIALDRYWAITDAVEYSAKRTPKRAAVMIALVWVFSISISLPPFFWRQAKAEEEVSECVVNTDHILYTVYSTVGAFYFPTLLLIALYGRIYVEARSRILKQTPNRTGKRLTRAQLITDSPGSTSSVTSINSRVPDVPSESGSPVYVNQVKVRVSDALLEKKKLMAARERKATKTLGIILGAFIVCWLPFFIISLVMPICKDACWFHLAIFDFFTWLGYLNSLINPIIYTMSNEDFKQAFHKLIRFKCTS
In short: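 Agonist activity measured as cAMP accumulation in cells stably transfected with human 5-HT1B. Cells incubated 60 min at RT, then detection reagent added for a further 60 min at RT before plate reading.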

in vitro [7] = assay type: in vitro ADME, mouse; conditions: MLM (male CD-1) 0.50 mg/mL, NADPH 1 mM, 1 μM compound, pH 7.4, 37° C., 60 min
Source text: MLM Stability Pooled MLM from male CD-1 mice (BIOIVT M00501) were used.

in vitro [8] = assay type: in vitro ADME, rat; conditions: RLM (male Sprague-Dawley) 0.50 mg/mL, NADPH 1 mM, 1 μM compound, pH 7.4, 37° C., 60 min
Source text: RLM Stability Pooled RLM from male Sprague-Dawley rats (Xenotech R1000) were used.

[9] = agonist, beta-arrestin recruitment
[10] = agonist, Ca2+ flux, Eurofins DiscoverX protocol, max dose
[11] = agonist, beta-arrestin recruitment, PathHunter, read-out: 5-HT2A Arrestin EC50
[12] = agonist, Ca2+ flux, Eurofins DiscoverX protocol, read-out: 5-HT2C EC50

T1 sequence (P28223 whole entry, the tested form may be a part): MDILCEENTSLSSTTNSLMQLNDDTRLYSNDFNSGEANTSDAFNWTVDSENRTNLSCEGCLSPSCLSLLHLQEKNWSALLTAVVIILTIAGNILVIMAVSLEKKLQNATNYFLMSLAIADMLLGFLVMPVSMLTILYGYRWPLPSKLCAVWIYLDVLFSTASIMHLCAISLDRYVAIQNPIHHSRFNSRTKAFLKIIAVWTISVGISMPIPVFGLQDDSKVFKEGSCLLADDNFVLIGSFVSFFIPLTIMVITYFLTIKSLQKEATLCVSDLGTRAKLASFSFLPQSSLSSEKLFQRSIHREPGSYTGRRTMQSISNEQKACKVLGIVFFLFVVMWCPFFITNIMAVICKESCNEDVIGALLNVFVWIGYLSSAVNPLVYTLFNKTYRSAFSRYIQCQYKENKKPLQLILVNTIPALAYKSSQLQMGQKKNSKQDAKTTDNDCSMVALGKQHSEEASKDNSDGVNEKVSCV

Compound | 5-HT2A Arrestin % Act @ Max Dose (5-HT2A receptor [1]; [9]) | # HTR/20 min at Most Efficacious Dose (C57BL/6 mice) | Most Efficacious Dose for Peak HTR/min (C57BL/6 mice) | Most Efficacious Dose for # HTR/20 min (C57BL/6 mice) | Peak HTR/min at Most Efficacious Dose (C57BL/6 mice) | Intrinsic clearance (Clint) (in vitro [2]) | half-life (t1/2) (in vitro [2]) | 5-HT2B % Act @ Max Dose (5-HT2B receptor [4]; agonist) | EC50 (5-HT2A receptor [1]; [11]) | Emax (5-HT2A receptor [1]; [9]) | Emax (5-HT2A receptor [5]; Ca2+ flux, HEK293, max dose) | Emax (5-HT1A receptor; CHO cells with Gα15, max dose) | Emax (5-HT2C receptor; [10]) | EC50 (5-HT2C receptor; [12]) | Emax (5-HT1B receptor; max dose) | Ki (5-HT2B receptor [3]; read-out: 5-HT2B Receptor Ki) | Emax (5-HT2B receptor [4]) | further results
CCN(CC)C(=O)[C@@H]1C=C2c3cccc4[nH]c(Br)c(c34)C[C@H]2N(C)C1 [Compound 35, (6aR,9R)-5-bromo-N,N-diethyl-7-methyl-4,6,6a,7,8,9-hexahydroindolo[4,3-fg]quinoline-9-carboxamide] | 30.94% | 2.38 HTR/20 min | (0.1) mg/kg, sc | (0.1) mg/kg, sc | 0.56 HTR/min | 57.4 µL/min/mg | 0.403 h | -0.13% |  |  |  |  |  |  |  |  |  | EC50 (5-HT2A receptor [1]): 1.67 nM; EC50 (5-HT1A receptor; CHO cells with Gα15): > 100000 nM; 5-HT1A % Act @ Max Dose (5-HT1A receptor; CHO cells with Gα15, max dose): 11.94%; EC50 (5-HT2C receptor): > 10000 nM; 5-HT2C % Act @ Max Dose (5-HT2C receptor; [10]): 0%; Ki (5-HT2B receptor [3]): 4.96 nM
CCN(CC)C(=O)[C@@H]1C=C2c3cccc4[nH]c(Br)c(c34)C[C@H]2N(CCC(F)(F)F)C1 [Compound 42, (6aR,9R)-5-bromo-N,N-diethyl-7-(3,3,3-trifluoropropyl)-4,6,6a,7,8,9-hexahydroindolo[4,3-fg]quinoline-9-carboxamide] |  |  |  |  |  |  |  |  | 16 nM | 49.4% | 8.29% | 9.13% | 17.9% | > 10000 nM | 33.1% | 238 nM | 2.58% | agonist activity at any of the serotonin receptors tested (5-HT2A receptor [5]; functional assays at 5-HT2A, 2B, 2C, 1A, 1B): no agonist activity at any of the receptors tested; potency in receptor binding (5-HT2A receptor [6]; radioligand binding, 5-HT2A): potent binding to 5-HT2A
CC[C@@H](C)NC(=O)[C@@H]1C=C2c3cccc4[nH]c(Br)c(c34)C[C@H]2N(C)C1 [Compound 43, (6aR,9R)-5-bromo-N—((R)-sec-butyl)-7-methyl-4,6,6a,7,8,9-hexahydroindolo[4,3-fg]quinoline-9-carboxamide] |  | 6.5 HTR/20 min |  | (0.1) mg/kg, sc | 1 HTR/min |  |  |  | 2.23 nM | 51.8% | 39.3% | 6.3% | 3.13% | > 10000 nM | 83.8% | 9.46 nM | 1% | 
CCC(CC)NC(=O)[C@@H]1C=C2c3cccc4[nH]c(Br)c(c34)C[C@H]2N(C)C1 [Compound 44, (6aR,9R)-5-bromo-N-(pentan-3-yl)-7-methyl-4,6,6a,7,8,9-hexahydroindolo[4,3-fg]quinoline-9-carboxamide] |  | 4.38 HTR/20 min | (3.2) mg/kg, sc | (1) mg/kg, sc | 0.93 HTR/min |  |  |  | 1.71 nM | 40.7% | 29.9% | 16.6% | 40% | 4930 nM | 68.5% | 9.3 nM | 15.7% | 
CCC[C@@H](C)NC(=O)[C@@H]1C=C2c3cccc4[nH]c(Br)c(c34)C[C@H]2N(C)C1 [Compound 45, (6aR,9R)-5-bromo-N—((R)-pentan-2-yl)-7-methyl-4,6,6a,7,8,9-hexahydroindolo[4,3-fg]quinoline-9-carboxamide] |  |  |  |  |  |  |  |  | 4.28 nM | 45.3% | 22.3% | 12.5% | 22.1% | > 10000 nM | 87.1% | 3.65 nM | -0.31% | 
CCN(CC)C(=O)[C@@H]1C=C2c3cccc4[nH]cc(c34)C[C@H]2NC1 [Compound 83] | 88.78% | 29.625 HTR/20 min | (10) mg/kg, sc | (3.2) mg/kg, sc | 3.625 HTR/min | <9.6 µL/min/mg | >2.42 h | 69.27% | 2.71 nM |  |  |  |  |  |  |  |  | Intrinsic clearance (Clint) (in vitro [7]): 12.6 µL/min/mg; half-life (t1/2) (in vitro [7]): 1.835 h; EC50 (5-HT2A receptor [5]; agonist, Ca2+ flux, HEK293): 1.7 nM; 5-HT2A % Act @ Max Dose (5-HT2A receptor [5]; agonist, Ca2+ flux, HEK293, max dose): 107.11%; Intrinsic clearance (Clint) (in vitro [8]): 15.3 µL/min/mg; half-life (t1/2) (in vitro [8]): 1.51 h; Ki (5-HT2A receptor [6]; [3H]ketanserin 1 nM, HEK293 stable cell line, 1 h, 25 °C): 5.65 nM; EC50 (5-HT1B receptor): 27.4 nM; 5-HT1B % Act @ Max Dose (5-HT1B receptor; max dose): 88.07%; Ki (5-HT2B receptor [3]; [3H]LSD 2 nM, HEK293 stable cell line, 1 h, 25 °C, read-out: 5-HT2B Receptor Ki): 115 nM; EC50 (5-HT2B receptor [4]; agonist, HEK293): 22.5 nM
